Legend:
Male Sprague Dawley rats = test: In vivo thermal hyperalgesia (Hargreaves test), CFA-injected rat; details: at 1 hour, p<0.01
Experimental: Male Sprague Dawley rats of young adult age group and body weight range of 180-200 g were included in the study. Animals were housed under a 12 h light/dark cycle with food and water ad libitum. The animals underwent acclimatization with the observation chambers of the Hargreaves' apparatus for two days, twice daily for 45-60 min each time prior to initiation of study. Animals were also habituated to the apparatus for 15-30 min before each testing. Thermal hyperalgesia was assessed using the rat plantar test (Ugo Basile, Italy) following a modified method of Hargreaves (1988), “A new and sensitive method for measuring thermal nociception in cutaneous hyperalgesia”, Pain 32: 77-88, the entire disclosure of which is herein incorporated by reference. […]
Following basal readout of PWL values to the thermal stimulus (PWL measurements described previously), 50 μL of complete Freund's Adjuvant (CFA—1 mg/mL suspension—Sigma, USA, Cat #F5881) was injected subcutaneously into the plantar surface of the right hind (ipsilateral) paw of animals under light isoflurane anesthesia. […]
Next day (day 1) after 20-22 h of CFA injection, PWL of animals were recorded. Mean of three readings are taken as PWL recording of ipsilateral paw of each animal for pre and post CFA basal readout. […]

hP2X2/3 = biological target: T1, hP2X2/3 (Homo sapiens, UniProt P56373+Q9UBL9); test: FLIPR intracellular calcium assay, hP2X2/3; type: cell-based; details: human P2X2/3-TRex293 cells, agonist at EC75
T1 construct: host or cells: TRex293 (hP2X2/3-TRex293), doxycycline-induced
T1 sequence (P56373 1-397): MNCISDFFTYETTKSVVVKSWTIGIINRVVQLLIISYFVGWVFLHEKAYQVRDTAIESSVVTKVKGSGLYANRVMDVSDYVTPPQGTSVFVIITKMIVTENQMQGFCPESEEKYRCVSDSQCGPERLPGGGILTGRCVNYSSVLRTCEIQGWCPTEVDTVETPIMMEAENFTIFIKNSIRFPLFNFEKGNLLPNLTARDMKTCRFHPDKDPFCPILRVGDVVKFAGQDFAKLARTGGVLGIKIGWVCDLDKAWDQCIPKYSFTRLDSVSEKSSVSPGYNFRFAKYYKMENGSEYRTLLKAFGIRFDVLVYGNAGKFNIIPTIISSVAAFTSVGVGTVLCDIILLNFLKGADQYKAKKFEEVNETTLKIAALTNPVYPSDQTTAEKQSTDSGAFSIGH
T1 sequence (Q9UBL9 1-471): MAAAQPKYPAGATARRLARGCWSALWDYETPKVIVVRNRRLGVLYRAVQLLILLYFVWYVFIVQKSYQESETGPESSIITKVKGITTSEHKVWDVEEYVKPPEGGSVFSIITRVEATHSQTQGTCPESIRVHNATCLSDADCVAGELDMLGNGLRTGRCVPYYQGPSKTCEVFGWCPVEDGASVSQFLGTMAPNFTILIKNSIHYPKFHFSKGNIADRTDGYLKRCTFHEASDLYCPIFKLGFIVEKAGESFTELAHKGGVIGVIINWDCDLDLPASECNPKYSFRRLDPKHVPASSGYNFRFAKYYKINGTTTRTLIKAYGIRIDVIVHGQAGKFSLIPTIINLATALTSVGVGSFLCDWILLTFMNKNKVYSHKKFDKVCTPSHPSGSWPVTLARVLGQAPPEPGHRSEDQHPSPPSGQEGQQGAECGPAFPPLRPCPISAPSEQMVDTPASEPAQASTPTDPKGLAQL
Procedure, shortened: (§1)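 HEK (hP2X3) or tetracycline-inducible TRex293 (hP2X2/3) cells loaded with Calcium 4 dye, then given 11-point half-log compound dilutions for 15 min at room temperature in HBSS/HEPES, pH 7.4, with 1.8 mM CaCl2. Cells challenged with agonist at EC75; IC50 derived from fluorescence inhibition versus no-compound wells.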

hP2X3 = biological target: T2, hP2X3 (Homo sapiens, UniProt P56373); test: FLIPR intracellular calcium assay, hP2X3; type: cell-based; details: human P2X3-HEK cells, agonist at EC75
T2 construct: host or cells: HEK (hP2X3-HEK)
T2 sequence (P56373 1-397): T1 sequence (P56373 1-397)
Procedure, shortened: as §1

| IC50 (hP2X2/3) [nM] | IC50 (hP2X3) [nM] | Structure (SMILES) | reversal to pre-treatment PWL value (Male Sprague Dawley rats; 30 mg/kg po) [%] | reversal to pre-treatment PWL value (Male Sprague Dawley rats; 60 mg/kg po) [%] |
| --- | --- | --- | --- | --- |
| 1 to 100 | 1 to 100 | CCC(C)n1ncc2nc(N3CCN(C(N)=O)CC3)nc(N[C@@H](c3cnc4ccccc4c3)C3CC3)c21 (stereo partly drawn) [Example 10, 4-{1-sec-Butyl-7-[((R)-cyclopropyl-quinolin-3-yl-methyl)-amino]-1H-pyrazolo[4,3-d]pyrimidin-5-yl}-piperazine-1-carboxylic Acid Amide] | 32 |  |
| 100 to 1000 | 1 to 100 | CC[C@H](C)n1ncc2nc(N3CCN(C(C)=O)CC3)nc(N[C@H](C)c3cnc4ccccc4c3)c21 [Example 19] |  | 36 |
